Reference: patent US20200331925A1, “HETEROCYCLIC COMPOUNDS FOR THE TREATMENT OF ABNORMAL CELLULAR PROLIFERATION” (G1 Therapeutics, Inc., priority 2018, published 2020)
pIC50: −log10 of the molar value.

Experiments:
Assay type in all cases: biochemical
[1] = molecular target: CDK1/Cyclin B1 (Homo sapiens, UniProt P06493); experiment: CDK1/Cyclin B1 kinase assay (Nanosyn, Caliper microfluidic); details: 12-point dose-response, ATP at Km (40 μM), 3 hr
Experimental: (§1) Selected compounds disclosed herein were tested in kinase assays by Nanosyn (Santa Clara, Calif.) to determine their inhibitory effect on selected CDKs. The assays were performed using microfluidic kinase detection technology (Caliper Assay Platform). The compounds were tested in 12-point dose-response format in singlicate at Kmfor ATP. Phosphoacceptor substrate peptide concentration used was 1 μM for all assays and Staurosporine was used as the reference compound for all assays. Specifics of each assay are as described below: CDK1/Cyclin B1: Enzyme concentration: 0.08 nM; ATP concentration: 40 μM; Incubation time: 3 hr.

[2] = molecular target: CDK2/Cyclin A (Homo sapiens, UniProt P24941); experiment: CDK2/Cyclin A kinase assay (Nanosyn, Caliper microfluidic); details: 12-point dose-response, ATP at Km (50 μM), 3 hr
Experimental: as §1, with “CDK2/Cyclin A:” for “CDK1/Cyclin B1:”, “0.1” for “0.08”, “50” for “40”

[3] = molecular target: CDK2/Cyclin E (Homo sapiens, UniProt P24941); experiment: CDK2/Cyclin E kinase assay (Nanosyn, Caliper microfluidic); details: 12-point dose-response, ATP at Km (100 μM), 3 hr
Experimental: as §1, with “CDK2/Cyclin E:” for “CDK1/Cyclin B1:”, “0.15” for “0.08”, “100” for “40”

[4] = molecular target: CDK3/Cyclin E (Homo sapiens, UniProt Q00526); experiment: CDK3/Cyclin E kinase assay (Nanosyn, Caliper microfluidic); details: 12-point dose-response, ATP at Km (400 μM), 3 hr
Experimental: as §1, with “CDK3/Cyclin E:” for “CDK1/Cyclin B1:”, “1” for “0.08”, “400” for “40”

[5] = molecular target: CDK4/Cyclin D1 (Homo sapiens, UniProt P11802); experiment: CDK4/Cyclin D1 kinase assay (Nanosyn, Caliper microfluidic); details: 12-point dose-response, ATP at Km (200 μM), 3 hr; Table 4
Chain of CDK4/Cyclin D1 (P11802 whole entry): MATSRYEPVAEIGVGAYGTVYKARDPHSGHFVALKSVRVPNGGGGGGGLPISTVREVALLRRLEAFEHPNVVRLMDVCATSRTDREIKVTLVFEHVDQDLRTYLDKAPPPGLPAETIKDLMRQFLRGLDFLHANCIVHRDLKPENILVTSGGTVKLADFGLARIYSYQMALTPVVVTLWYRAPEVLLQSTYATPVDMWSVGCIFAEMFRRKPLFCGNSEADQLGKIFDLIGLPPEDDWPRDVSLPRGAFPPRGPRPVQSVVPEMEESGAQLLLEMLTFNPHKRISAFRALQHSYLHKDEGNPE
Chain of CDK4/Cyclin D1 (P24385 whole entry partner): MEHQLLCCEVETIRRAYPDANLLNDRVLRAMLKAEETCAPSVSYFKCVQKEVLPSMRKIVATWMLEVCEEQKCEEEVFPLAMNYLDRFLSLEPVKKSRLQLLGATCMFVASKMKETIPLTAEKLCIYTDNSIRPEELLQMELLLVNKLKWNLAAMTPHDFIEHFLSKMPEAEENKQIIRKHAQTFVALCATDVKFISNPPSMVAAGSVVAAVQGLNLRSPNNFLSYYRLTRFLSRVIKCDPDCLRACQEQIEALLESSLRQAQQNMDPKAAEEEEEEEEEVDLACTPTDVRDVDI
Experimental: as §1, with “CDK4/Cyclin D1:” for “CDK1/Cyclin B1:”, “1” for “0.08”, “200” for “40”

[6] = molecular target: CDK5/p35 (Homo sapiens, UniProt Q00535); experiment: CDK5/p35 kinase assay (Nanosyn, Caliper microfluidic); details: 12-point dose-response, ATP at Km (20 μM), 3 hr
Chain of CDK5/p35 (Q00535 whole entry): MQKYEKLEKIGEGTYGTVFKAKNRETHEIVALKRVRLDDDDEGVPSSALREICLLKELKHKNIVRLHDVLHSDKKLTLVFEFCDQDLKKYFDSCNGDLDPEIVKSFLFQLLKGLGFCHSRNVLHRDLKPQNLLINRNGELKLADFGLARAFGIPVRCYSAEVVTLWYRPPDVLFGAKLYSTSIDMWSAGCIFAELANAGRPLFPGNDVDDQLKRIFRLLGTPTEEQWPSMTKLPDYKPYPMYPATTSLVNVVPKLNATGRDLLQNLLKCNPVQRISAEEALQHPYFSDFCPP
Chain of CDK5/p35 (Q15078 whole entry partner): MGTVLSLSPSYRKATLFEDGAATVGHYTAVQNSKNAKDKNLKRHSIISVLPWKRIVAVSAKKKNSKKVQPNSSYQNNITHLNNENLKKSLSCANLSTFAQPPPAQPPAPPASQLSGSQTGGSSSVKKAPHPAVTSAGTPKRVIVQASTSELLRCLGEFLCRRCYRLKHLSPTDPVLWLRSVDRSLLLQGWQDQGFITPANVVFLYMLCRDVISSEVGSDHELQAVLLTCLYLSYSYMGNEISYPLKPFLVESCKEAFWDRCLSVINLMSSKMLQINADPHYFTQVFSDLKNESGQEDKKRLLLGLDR
Experimental: as §1, with “CDK5/p35:” for “CDK1/Cyclin B1:”, “0.05” for “0.08”, “20” for “40”

[7] = molecular target: CDK5/p25 (Homo sapiens, UniProt Q00535); experiment: CDK5/p25 kinase assay (Nanosyn, Caliper microfluidic); details: 12-point dose-response, ATP at Km (20 μM), 3 hr
Chain of CDK5/p25 (Q00535 whole entry): as the sequence (Q00535 whole entry) above
Chain of CDK5/p25 (Q15078 99-307 partner limits assumed): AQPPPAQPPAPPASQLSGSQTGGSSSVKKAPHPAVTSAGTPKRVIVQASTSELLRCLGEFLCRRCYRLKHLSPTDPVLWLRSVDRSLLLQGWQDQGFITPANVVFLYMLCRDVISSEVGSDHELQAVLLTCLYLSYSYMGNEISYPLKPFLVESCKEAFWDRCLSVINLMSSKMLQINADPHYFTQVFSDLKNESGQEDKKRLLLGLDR
Experimental: as §1, with “CDK5/p25:” for “CDK1/Cyclin B1:”, “0.1” for “0.08”, “20” for “40”

[8] = molecular target: CDK6/Cyclin D3 (Homo sapiens, UniProt Q00534); experiment: CDK6/Cyclin D3 kinase assay (Nanosyn, Caliper microfluidic); details: 12-point dose-response, ATP at Km (300 μM), 3 hr
Chain of CDK6/Cyclin D3 (Q00534 whole entry): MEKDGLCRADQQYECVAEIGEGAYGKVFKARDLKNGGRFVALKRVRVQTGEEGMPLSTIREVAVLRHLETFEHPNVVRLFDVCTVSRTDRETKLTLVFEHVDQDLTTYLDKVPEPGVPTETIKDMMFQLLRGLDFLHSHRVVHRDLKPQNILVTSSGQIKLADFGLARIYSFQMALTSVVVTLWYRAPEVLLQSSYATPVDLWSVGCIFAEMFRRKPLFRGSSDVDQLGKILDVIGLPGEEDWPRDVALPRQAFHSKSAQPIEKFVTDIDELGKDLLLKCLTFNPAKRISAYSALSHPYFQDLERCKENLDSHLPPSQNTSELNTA
Chain of CDK6/Cyclin D3 (P30281 whole entry partner): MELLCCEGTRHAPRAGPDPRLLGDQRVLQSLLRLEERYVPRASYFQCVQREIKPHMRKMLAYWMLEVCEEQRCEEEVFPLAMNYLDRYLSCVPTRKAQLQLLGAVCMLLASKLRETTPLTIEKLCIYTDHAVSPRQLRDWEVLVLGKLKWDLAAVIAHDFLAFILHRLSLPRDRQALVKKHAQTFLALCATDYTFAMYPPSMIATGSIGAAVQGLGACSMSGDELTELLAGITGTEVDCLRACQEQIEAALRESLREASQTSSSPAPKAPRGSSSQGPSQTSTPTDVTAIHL
Experimental: as §1, with “CDK6/Cyclin D3:” for “CDK1/Cyclin B1:”, “2” for “0.08”, “300” for “40”

[9] = molecular target: CDK7/Cyclin H (Homo sapiens, UniProt P50613); experiment: CDK7/Cyclin H kinase assay (Nanosyn, Caliper microfluidic); details: 12-point dose-response, ATP at Km (50 μM), 17 hr
Experimental: as §1, with “CDK7/Cyclin H:” for “CDK1/Cyclin B1:”, “10” for “0.08”, “50” for “40”, “17” for “3”

[10] = molecular target: CDK9/Cyclin T (Homo sapiens, UniProt P50750); experiment: CDK9/Cyclin T kinase assay (Nanosyn, Caliper microfluidic); details: 12-point dose-response, ATP at Km (10 μM), 17 hr; Table 5
Chain of CDK9/Cyclin T (P50750 whole entry): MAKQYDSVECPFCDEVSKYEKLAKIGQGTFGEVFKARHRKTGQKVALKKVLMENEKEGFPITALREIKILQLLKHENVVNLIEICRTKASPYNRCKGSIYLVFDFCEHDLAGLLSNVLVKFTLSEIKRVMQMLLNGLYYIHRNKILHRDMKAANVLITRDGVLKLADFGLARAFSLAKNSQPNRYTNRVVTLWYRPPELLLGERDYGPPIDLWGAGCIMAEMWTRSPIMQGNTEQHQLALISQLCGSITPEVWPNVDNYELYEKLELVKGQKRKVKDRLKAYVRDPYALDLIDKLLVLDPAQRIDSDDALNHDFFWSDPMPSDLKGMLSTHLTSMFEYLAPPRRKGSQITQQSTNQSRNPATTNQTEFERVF
Chain of CDK9/Cyclin T (O60563 whole entry partner): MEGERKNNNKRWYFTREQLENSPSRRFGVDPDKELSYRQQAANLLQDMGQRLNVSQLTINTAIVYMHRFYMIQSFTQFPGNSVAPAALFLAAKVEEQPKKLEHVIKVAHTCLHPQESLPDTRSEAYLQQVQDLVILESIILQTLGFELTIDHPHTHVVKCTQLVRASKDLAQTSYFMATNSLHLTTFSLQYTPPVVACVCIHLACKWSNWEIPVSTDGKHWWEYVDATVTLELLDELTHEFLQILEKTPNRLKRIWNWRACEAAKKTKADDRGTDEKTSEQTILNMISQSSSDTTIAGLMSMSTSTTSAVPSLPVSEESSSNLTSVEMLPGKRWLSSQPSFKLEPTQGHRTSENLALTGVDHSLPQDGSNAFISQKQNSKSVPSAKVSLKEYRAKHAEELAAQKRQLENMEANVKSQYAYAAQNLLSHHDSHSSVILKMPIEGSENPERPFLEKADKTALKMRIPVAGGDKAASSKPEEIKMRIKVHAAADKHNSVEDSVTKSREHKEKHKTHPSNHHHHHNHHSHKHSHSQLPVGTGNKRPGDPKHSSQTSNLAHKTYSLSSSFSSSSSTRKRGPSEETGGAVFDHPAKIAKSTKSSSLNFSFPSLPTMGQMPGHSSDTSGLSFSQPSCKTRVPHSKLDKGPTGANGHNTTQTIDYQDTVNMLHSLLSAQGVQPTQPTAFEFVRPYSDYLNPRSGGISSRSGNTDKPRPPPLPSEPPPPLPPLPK
Experimental: as §1, with “[…]:” for “CDK1/Cyclin B1:”, “5” for “0.08”, “10” for “40”, “17” for “3”

Chain of CDK1/Cyclin B1 (P06493 whole entry): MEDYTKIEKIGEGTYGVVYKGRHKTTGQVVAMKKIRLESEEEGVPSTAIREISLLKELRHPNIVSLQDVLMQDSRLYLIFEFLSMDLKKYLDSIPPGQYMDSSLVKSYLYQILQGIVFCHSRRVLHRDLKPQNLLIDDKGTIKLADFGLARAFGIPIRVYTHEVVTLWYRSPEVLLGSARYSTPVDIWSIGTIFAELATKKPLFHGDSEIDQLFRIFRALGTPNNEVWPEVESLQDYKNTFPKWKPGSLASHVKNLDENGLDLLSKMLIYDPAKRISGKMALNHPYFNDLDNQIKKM
Chain of CDK1/Cyclin B1 (P14635 whole entry partner): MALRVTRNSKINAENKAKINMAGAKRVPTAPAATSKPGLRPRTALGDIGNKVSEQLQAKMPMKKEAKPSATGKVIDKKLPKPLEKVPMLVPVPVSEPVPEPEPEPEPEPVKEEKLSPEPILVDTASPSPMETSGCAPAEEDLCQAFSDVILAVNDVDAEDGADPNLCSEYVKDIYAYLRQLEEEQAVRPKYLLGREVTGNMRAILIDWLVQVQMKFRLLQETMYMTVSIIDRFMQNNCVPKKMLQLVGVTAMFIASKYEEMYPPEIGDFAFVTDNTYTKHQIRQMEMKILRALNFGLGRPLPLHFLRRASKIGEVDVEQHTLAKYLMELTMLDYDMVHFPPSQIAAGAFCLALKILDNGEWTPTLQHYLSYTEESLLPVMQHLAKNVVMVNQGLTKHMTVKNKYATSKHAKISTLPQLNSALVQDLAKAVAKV

pIC50 [1]	pIC50 [2]	pIC50 [3]	pIC50 [4]	pIC50 [5]	pIC50 [6]	pIC50 [7]	pIC50 [8]	pIC50 [9]	pIC50 [10]	SMILES
6.85	7.48	7.14	6.96	8.17	6.80	6.85	7.40	7.00	8.66	N[C@H]1CC[C@H](Nc2ncc3cc4n(c3n2)C2(CCCCC2)CNC4=O)CC1 [Compound 49, 2′-(((1r,4r)-4-aminocyclohexyl)amino)-7′,8′-dihydro-6′H-spiro[cyclohexane-1,9′-pyrazino[1′,2′:1,5]pyrrolo[2,3-d]pyrimidin]-6′-one]
6.29	6.60	6.33	6.28	7.68	6.15	6.12	7.11	6.55	8.19	O=C1NCC2(CCCCC2)n2c1cc1cnc(N[C@H]3CC[C@H](N4CCCCC4)CC3)nc12 [Compound 46, 2′-(((1,4-trans)-4-(piperidin-1-yl)cyclohexyl)amino)-7′,8′-dihydro-6′H-spiro[cyclohexane-1,9′-pyrazino[1′,2′:1,5]pyrrolo[2,3-d]pyrimidin]-6′-one]
4.41	4.55	4.46	4.25	6.77	4.33	4.26	6.03	4.21	6.16	O=C1NCC2(CCCCC2)n2c1cc1cnc(N[C@H]3CCCNC3=O)nc12 [Compound 23, (S)-2′-((2-oxopiperidin-3-yl)amino)-7′,8′-dihydro-6′H-spiro[cyclohexane-1,9′-pyrazino[1′,2′:1,5]pyrrolo[2,3-d]pyrimidin]-6′-one]
4.57	4.96	4.62	4.74	7.00	4.59	4.60	6.28	5.14	6.36	O=C1NCC2(CCCCC2)n2c1cc1cnc(N[C@@H]3C[C@@H](O)CNC3=O)nc12 [Compound 8, 2′-(((3R,5R)-5-hydroxy-2-oxopiperidin-3-yl)amino)-7′,8′-dihydro-6′H-spiro[cyclohexane-1,9′-pyrazino[1′,2′:1,5]pyrrolo[2,3-d]pyrimidin]-6′-one]
6.31	6.77	6.54	6.33	7.62	6.49	6.57	7.00	6.57	8.21	O=C1NCC2(CCCCC2)n2c1cc1cnc(N[C@H]3CC[C@H](N4CCOCC4)CC3)nc12 [Compound 44, 2′-(((1,4-trans)-4-morpholinocyclohexyl)amino)-7′,8′-dihydro-6′H-spiro[cyclohexane-1,9′-pyrazino[1′,2′:1,5]pyrrolo[2,3-d]pyrimidin]-6′-one]

The next lines start with the molecule.

SMILES	pIC50 [1]	pIC50 [2]	pIC50 [3]	pIC50 [4]	pIC50 [5]	pIC50 [6]	pIC50 [7]	pIC50 [8]	pIC50 [9]	pIC50 [10]
NS(=O)(=O)c1cccc(Nc2ncc3cc4n(c3n2)C2(CCCCC2)CNC4=O)c1 [Compound 42, 3-((6′-oxo-7′,8′-dihydro-6′H-spiro[cyclohexane-1,9′-pyrazino[1′,2′:1,5]pyrrolo[2,3-d]pyrimidin]-2′-yl)amino)benzenesulfonamide]	8.06	8.37	8.11	7.92	8.05	8.12	8.26	7.66	6.62	8.92
C1=NCC2(CCCCC2)n2c1cc1cnc(NC3CCOCC3)nc12 [Compound 52, N-(tetrahydro-2H-pyran-4-yl)-8′H-spiro[cyclohexane-1,9′-pyrazino[1′,2′:1,5]pyrrolo[2,3-d]pyrimidin]-2′-amine]	7.11	7.80	8.06	7.62	7.17	7.49	7.51	6.60	6.55	7.24
N[C@H]1CC[C@@H](Nc2ncc3cc4n(c3n2)C2(CCCCC2)CN=C4)CC1 [Compound 55, (1s,4s)-N^1-(8′H-spiro[cyclohexane-1,9′-pyrazino[1′,2′:1,5]pyrrolo[2,3-d]pyrimidin]-2′-yl)cyclohexane-1,4-diamine]	5.85	6.09	6.48	6.34	7.04	5.77	5.70	6.17	6.92	7.66
O=C1NCC2(CCCCC2)n2c1cc1cnc(N[C@H]3CC[C@H](NCc4ccccc4F)CC3)nc12 [Compound 20, 2′-(((1,4-trans)-4-((2-fluorobenzyl)amino)cyclohexyl)amino)-7′,8′-dihydro-6′H-spiro[cyclohexane-1,9′-pyrazino[1′,2′:1,5]pyrrolo[2,3-d]pyrimidin]-6′-one]	6.44	6.74	6.51	6.40	7.85	6.43	6.43	7.11	6.64	8.33
